Experimental data as given in patent publication US6914045B2, “Glycopeptide antibiotics” (Wyeth Holdings Corporation, priority 2001, dated 2005).
≈ marks a conversion by molar mass, not a printed value.

Assays:
Experiment in all cases: in vitro antibacterial evaluation, MIC by broth dilution
Assay type in all cases: cell-based
[1] = tested on: Streptococcus sp.; details: broth dilution, 18 hours at 35° C.
In short: (§1)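 Following National Committee for Clinical Laboratory Standards recommendations (M7-A2), susceptibility was measured by dilution in Muller-Hinton II […]. Bacteria were seeded at 5×10^5 CFU/mL against compound concentrations from 64 down to 0.06 μg/mL.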

[2] = tested on: Staphylococcus sp.; details: broth dilution, 18 hours at 35° C.
In short: as §1

[3] = tested on: Enterococcus sp.; details: broth dilution, 18 hours at 35° C.
In short: as §1

[4] = tested on: Escherichia coli; details: 18 hours at 35° C.

CC(c1ccccc1)C1NC(=O)CNC(=O)C(CO)NC(=O)C(C(O)C2CNC(=N)N2C2OC(CO)C(O)C3OC(C)(C)OC32)NC(=O)C(C(O)C2CNC(=N)N2)NC(=O)C(Cc2ccc(OC3OC(CO)C(OC4OC5COC(C)(C)OC5C5OC(C)(C)OC45)C4OC(C)(C)OC34)cc2)NC1=O (stereo not shown) [Example 229b]
MIC Streptococcus agalactiae (GC 4564) [1]: >128 µg/mL
MIC Streptococcus pneumoniae (ATCC 6301) [1]: 128 µg/mL (≈ 87.9 µM)
MIC Streptococcus pneumoniae (GC 1894) [1]: 128 µg/mL (≈ 87.9 µM)
MIC Streptococcus pneumoniae (GC 4565) [1]: 128 µg/mL (≈ 87.9 µM)
MIC Streptococcus pyogenes (GC 4563) [1]: >128 µg/mL
MIC Streptococcus pneumoniae (ATCC 6301) ([1]; inoculum 5×10^5 CFU/mL, strain ATCC 6301): 128 µg/mL (≈ 87.9 µM)
MIC Streptococcus pneumoniae (GC 1894) ([1]; inoculum 5×10^5 CFU/mL, strain GC 1894): 128 µg/mL (≈ 87.9 µM)
MIC Streptococcus pyogenes (GC 4563) ([1]; inoculum 5×10^5 CFU/mL, strain GC 4563): >128 µg/mL
MIC Streptococcus agalactiae (GC 4564) ([1]; inoculum 5×10^5 CFU/mL, strain GC 4564): >128 µg/mL
MIC Streptococcus pneumoniae (GC 4565) ([1]; inoculum 5×10^5 CFU/mL, strain GC 4565): 128 µg/mL (≈ 87.9 µM)
MIC Coagulase Negative Staphylococcus (GC 4547) [2]: >128 µg/mL
MIC Coagulase Negative Staphylococcus (GC 4548) [2]: >128 µg/mL
MIC Coagulase Negative Staphylococcus (GC 4549) [2]: >128 µg/mL
MIC Coagulase Negative Staphylococcus (GC 4551) [2]: >128 µg/mL
MIC Coagulase Negative Staphylococcus (GC 6257) [2]: >128 µg/mL
MIC Staphylococcus aureus (ATCC 29213) [2]: >128 µg/mL
MIC Staphylococcus aureus (GC 1131) [2]: >128 µg/mL
MIC Staphylococcus aureus (GC 3051) [2]: >128 µg/mL
MIC Staphylococcus aureus (GC 3053) [2]: >128 µg/mL
MIC Staphylococcus aureus (GC 4541) [2]: >128 µg/mL
MIC Staphylococcus aureus (GC 4542) [2]: >128 µg/mL
MIC Staphylococcus aureus (GC 4544) [2]: >128 µg/mL
MIC Staphylococcus aureus (GC 4545) [2]: >128 µg/mL
MIC Staphylococcus aureus-SMITH (GC 4543) [2]: >128 µg/mL
MIC Staphylococcus haemolyticus (GC 4546) [2]: >128 µg/mL
MIC Staphylococcus aureus (ATCC 29213) ([2]; strain ATCC 29213): >128 µg/mL
MIC Staphylococcus aureus (GC 1131) ([2]; strain GC 1131): >128 µg/mL
MIC Staphylococcus aureus (GC 3051) ([2]; strain GC 3051): >128 µg/mL
MIC Staphylococcus aureus (GC 3053) ([2]; strain GC 3053): >128 µg/mL
MIC Staphylococcus aureus (GC 4541) ([2]; strain GC 4541): >128 µg/mL
MIC Staphylococcus aureus (GC 4542) ([2]; strain GC 4542): >128 µg/mL
MIC Staphylococcus aureus-SMITH (GC 4543) ([2]; strain GC 4543): >128 µg/mL
MIC Staphylococcus aureus (GC 4544) ([2]; strain GC 4544): >128 µg/mL
MIC Staphylococcus aureus (GC 4545) ([2]; strain GC 4545): >128 µg/mL
MIC Staphylococcus haemolyticus (GC 4546) ([2]; strain GC 4546): >128 µg/mL
MIC Coagulase Negative Staphylococcus (GC 4547) ([2]; strain GC 4547): >128 µg/mL
MIC Coagulase Negative Staphylococcus (GC 4548) ([2]; strain GC 4548): >128 µg/mL
MIC Coagulase Negative Staphylococcus (GC 4549) ([2]; strain GC 4549): >128 µg/mL
MIC Coagulase Negative Staphylococcus (GC 4551) ([2]; strain GC 4551): >128 µg/mL
MIC Coagulase Negative Staphylococcus (GC 6257) ([2]; strain GC 6257): >128 µg/mL
MIC Enterococcus avium (GC 4558) [3]: 64 µg/mL (≈ 44 µM)
MIC Enterococcus faecalis (ATCC 29212) [3]: >128 µg/mL
MIC Enterococcus faecalis (GC 2242) [3]: 128 µg/mL (≈ 87.9 µM)
MIC Enterococcus faecalis (GC 2691) [3]: >128 µg/mL
MIC Enterococcus faecalis (GC 3059) [3]: >128 µg/mL
MIC Enterococcus faecalis (GC 4552) [3]: >128 µg/mL
MIC Enterococcus faecalis (GC 4553) [3]: 128 µg/mL (≈ 87.9 µM)
MIC Enterococcus faecalis (GC 4554) [3]: >128 µg/mL
MIC Enterococcus faecalis (GC 6189) [3]: >128 µg/mL
MIC Enterococcus faecium (GC 2243) [3]: >128 µg/mL
MIC Enterococcus faecium (GC 4556) [3]: >128 µg/mL
MIC Enterococcus faecium (GC 4557) [3]: 128 µg/mL (≈ 87.9 µM)
MIC Enterococcus faecalis (ATCC 29212) ([3]; inoculum 5×10^5 CFU/mL, strain ATCC 29212): >128 µg/mL
MIC Enterococcus faecalis (GC 2242) ([3]; inoculum 5×10^5 CFU/mL, strain GC 2242): 128 µg/mL (≈ 87.9 µM)
MIC Enterococcus faecium (GC 2243) ([3]; inoculum 5×10^5 CFU/mL, strain GC 2243): >128 µg/mL
MIC Enterococcus faecalis (GC 2691) ([3]; inoculum 5×10^5 CFU/mL, strain GC 2691): >128 µg/mL
MIC Enterococcus faecalis (GC 3059) ([3]; inoculum 5×10^5 CFU/mL, strain GC 3059): >128 µg/mL
MIC Enterococcus faecalis (GC 4552) ([3]; inoculum 5×10^5 CFU/mL, strain GC 4552): >128 µg/mL
MIC Enterococcus faecalis (GC 4553) ([3]; inoculum 5×10^5 CFU/mL, strain GC 4553): 128 µg/mL (≈ 87.9 µM)
MIC Enterococcus faecalis (GC 4554) ([3]; inoculum 5×10^5 CFU/mL, strain GC 4554): >128 µg/mL
MIC Enterococcus faecium (GC 4556) ([3]; inoculum 5×10^5 CFU/mL, strain GC 4556): >128 µg/mL
MIC Enterococcus faecium (GC 4557) ([3]; inoculum 5×10^5 CFU/mL, strain GC 4557): 128 µg/mL (≈ 87.9 µM)
MIC Enterococcus avium (GC 4558) ([3]; inoculum 5×10^5 CFU/mL, strain GC 4558): 64 µg/mL (≈ 44 µM)
MIC Enterococcus faecalis (GC 6189) ([3]; inoculum 5×10^5 CFU/mL, strain GC 6189): >128 µg/mL
MIC Escherichia coli (ATCC 25922) [4]: >128 µg/mL
MIC Escherichia coli (GC 4559) [4]: >128 µg/mL
MIC Escherichia coli (GC 4560) [4]: 32 µg/mL (≈ 22 µM)
